15 compounds from ChEMBL document CHEMBL3856285, “Recent progress in the identification of adenosine monophosphate-activated protein kinase (AMPK) activators” (Bioorg Med Chem Lett, 2016) can be followed below.

A value given as a limit tells only on which side of the number the result lay.

Assay [1] has as its target AMP-activated protein kinase, AMPK (Homo sapiens) (UniProt P54646+O43741+P54619+Q9UGJ0+Q9Y478+Q13131+Q9UGI9). Briefly: Activation of human recombinant AMPK assessed as increase in ADP accumulation using SAMS peptide after 30 mins by fluorescence assay.
Assay [2] deals with T1, AMP-activated protein kinase (AMPK) alpha-1/beta-1/gamma-1 (Homo sapiens, UniProt P54619+Q13131+Q9Y478). The assay is described as follows: Activation of full length human His/GST-tagged AMPK alpha1/beta1/gamma1 expressed in baculovirus expression system after 1 hr by Z'Lyte assay.
The target in assay [3] is T2, AMP-activated protein kinase (AMPK) alpha-1/beta-1/gamma-1 (Homo sapiens) (UniProt P54619+Q9Y478+Q13131). Briefly: Activation of full length human recombinant AMPK alpha1/beta1/gamma1 preincubated for 10 mins followed by FL-Peptide 7 addition measured after 2 hrs by fluorescence assay relative to AMP. Format: protein-complex assay.
Assay [4] has as its target T2, AMP-activated protein kinase (AMPK) alpha-1/beta-1/gamma-1 (Homo sapiens). The assay is described as follows: Activation of full length human recombinant AMPK alpha1/beta1/gamma1 preincubated for 10 mins followed by FL-Peptide 7 addition measured after 2 hrs by fluorescence assay. Format: protein-complex assay.
Assay [5] addresses T3, AMPK alpha2/beta2/gamma1 (Homo sapiens) (UniProt P54646+O43741+P54619). Briefly: Activation of full length human His6-tagged AMPK alpha2/beta2/gamma1 expressed in Escherichia coli BL21-CodonPlus (DE3)-RIPL preincubated for 10 mins followed by FL-Peptide 7 substrate addition measured after 2 hrs by fluorescence assay relative to AMP.
In assay [6] the target is T3, AMPK alpha2/beta2/gamma1 (Homo sapiens). The assay is described as follows: Activation of full length human His6-tagged AMPK alpha2/beta2/gamma1 expressed in Escherichia coli BL21-CodonPlus (DE3)-RIPL preincubated for 10 mins followed by FL-Peptide 7 substrate addition measured after 2 hrs by fluorescence assay.
Assay [7] deals with AMPK alpha2/beta1/gamma1 (Homo sapiens) (UniProt P54646+P54619+Q9Y478). The assay is described as follows: Activation of full length human recombinant AMPK alpha2/beta1/gamma1 expressed in baculovirus infected sf21 cells using 5'-FAM-SAMS peptide substrate after 45 mins by fluorescence assay relative to AMP.
Assay [8] deals with T2, AMP-activated protein kinase (AMPK) alpha-1/beta-1/gamma-1 (Homo sapiens). Briefly: Activation of full length human recombinant AMPK alpha1/beta1/gamma1 expressed in baculovirus infected sf21 cells using 5'-FAM-SAMS peptide substrate after 45 mins by fluorescence assay relative to AMP.
Assay [9] deals with T1, AMP-activated protein kinase (AMPK) alpha-1/beta-1/gamma-1. Briefly: Activation of full length human recombinant AMPK alpha1/beta1/gamma1 expressed in baculovirus infected sf21 cells using 5'-FAM-SAMS peptide substrate after 45 mins by fluorescence assay.
The target in assay [10] is T2, AMP-activated protein kinase (AMPK) alpha-1/beta-1/gamma-1 (Homo sapiens). The assay is described as follows: Activation of full length human recombinant AMPK alpha1/beta1/gamma1 expressed in baculovirus infected sf21 cells using SAMS peptide substrate after 30 mins in presence of [33P]ATP by TopCount analysis relative to AMP.
Assay [11] addresses AMPK alpha1/beta1/gamma2 (Homo sapiens) (UniProt Q9UGJ0+Q9Y478+Q13131). Briefly: Activation of human recombinant AMPK alpha1/beta1/gamma2 expressed in Escherichia coli assessed as residual activity at 30 uM using AMARAA peptide relative to control.
The species entered for assay [12] is Rattus norvegicus.
Description: Allosteric activation of rat liver AMPK in presence of ATP relative to control
For assay [13], the species on record is Rattus norvegicus. Briefly: Activation of rat liver AMPK assessed as increase in biotinylated AMARAA peptide phosphorylation at 200 uM measured after 30 mins by DELFIA assay relative to control.
In assay [14] the target is T3, AMPK alpha2/beta2/gamma1 (Homo sapiens). Briefly: Activation of full length human His6-tagged AMPK alpha2/beta2/gamma1 expressed in Escherichia coli BL21-CodonPlus (DE3)-RIPL using FL-Peptide 7 substrate incubated for 2 hrs by fluorescence assay relative to AMP.
Assay [15] shares this target. Briefly: Activation of full length human His6-tagged AMPK alpha2/beta2/gamma1 expressed in Escherichia coli BL21-CodonPlus (DE3)-RIPL using FL-Peptide 7 substrate incubated for 2 hrs by fluorescence assay.
For assay [16], the target named is T1, AMP-activated protein kinase (AMPK) alpha-1/beta-1/gamma-1. The assay is described as follows: Activation of full length human recombinant AMPK alpha1/beta1/gamma1 expressed in baculovirus infected sf21 cells using SAMS peptide substrate after 30 mins in presence of [33P]ATP by TopCount analysis.

T2 sequence (P54619 whole entry): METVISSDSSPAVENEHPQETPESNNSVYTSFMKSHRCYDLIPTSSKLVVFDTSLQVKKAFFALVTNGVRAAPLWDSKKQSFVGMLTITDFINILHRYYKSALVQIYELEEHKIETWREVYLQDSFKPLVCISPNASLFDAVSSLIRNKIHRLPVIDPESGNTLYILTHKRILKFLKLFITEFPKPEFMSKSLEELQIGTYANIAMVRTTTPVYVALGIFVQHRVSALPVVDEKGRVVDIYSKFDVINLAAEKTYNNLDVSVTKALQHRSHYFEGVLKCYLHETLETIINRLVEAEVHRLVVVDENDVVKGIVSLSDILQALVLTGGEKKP
T2 sequence (Q13131 whole entry partner): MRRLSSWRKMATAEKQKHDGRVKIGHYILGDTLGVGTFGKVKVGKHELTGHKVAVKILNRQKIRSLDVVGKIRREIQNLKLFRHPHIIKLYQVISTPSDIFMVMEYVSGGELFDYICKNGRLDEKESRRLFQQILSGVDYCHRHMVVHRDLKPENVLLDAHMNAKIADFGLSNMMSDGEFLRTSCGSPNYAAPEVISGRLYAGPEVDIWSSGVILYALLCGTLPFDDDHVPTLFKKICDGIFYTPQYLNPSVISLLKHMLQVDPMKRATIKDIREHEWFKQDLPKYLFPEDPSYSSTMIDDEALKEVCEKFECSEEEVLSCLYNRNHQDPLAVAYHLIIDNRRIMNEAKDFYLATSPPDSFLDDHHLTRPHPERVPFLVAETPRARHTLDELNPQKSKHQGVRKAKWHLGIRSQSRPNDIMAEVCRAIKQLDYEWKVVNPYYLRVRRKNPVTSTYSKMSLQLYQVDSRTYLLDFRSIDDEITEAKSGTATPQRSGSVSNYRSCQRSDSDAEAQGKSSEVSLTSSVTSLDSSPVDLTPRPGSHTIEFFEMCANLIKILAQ
T2 sequence (Q9Y478 2-270 partner limits assumed): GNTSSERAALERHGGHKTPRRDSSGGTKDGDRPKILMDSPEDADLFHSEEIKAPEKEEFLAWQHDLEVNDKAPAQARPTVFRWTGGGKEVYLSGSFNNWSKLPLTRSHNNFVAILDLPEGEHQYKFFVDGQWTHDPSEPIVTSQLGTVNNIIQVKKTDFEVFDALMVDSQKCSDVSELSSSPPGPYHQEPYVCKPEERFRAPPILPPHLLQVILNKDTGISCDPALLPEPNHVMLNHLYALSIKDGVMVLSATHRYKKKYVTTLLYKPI
T1 sequence (P54619 whole entry): as the sequence (P54619 whole entry) above
T1 sequence (Q9Y478 whole entry): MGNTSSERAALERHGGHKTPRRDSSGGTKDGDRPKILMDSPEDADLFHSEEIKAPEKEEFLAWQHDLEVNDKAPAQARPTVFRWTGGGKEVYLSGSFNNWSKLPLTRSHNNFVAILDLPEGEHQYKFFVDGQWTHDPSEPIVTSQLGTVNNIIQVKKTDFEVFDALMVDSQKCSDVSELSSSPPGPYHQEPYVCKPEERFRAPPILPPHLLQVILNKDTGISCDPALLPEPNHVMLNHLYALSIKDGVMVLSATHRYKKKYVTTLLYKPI
T1 sequence (Q13131 whole entry): as the sequence (Q13131 whole entry partner) above
T3 sequence (O43741 whole entry, looked up): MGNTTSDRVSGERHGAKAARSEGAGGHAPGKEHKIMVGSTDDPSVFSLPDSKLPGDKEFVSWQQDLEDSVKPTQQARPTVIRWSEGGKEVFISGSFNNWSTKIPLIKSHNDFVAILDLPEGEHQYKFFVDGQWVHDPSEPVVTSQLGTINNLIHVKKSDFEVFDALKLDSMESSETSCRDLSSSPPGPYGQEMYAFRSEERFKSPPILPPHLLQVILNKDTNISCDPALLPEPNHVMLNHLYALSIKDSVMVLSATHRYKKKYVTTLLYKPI
T3 sequence (P54619 whole entry, looked up): as the sequence (P54619 whole entry) above
T3 sequence (P54646 whole entry, looked up): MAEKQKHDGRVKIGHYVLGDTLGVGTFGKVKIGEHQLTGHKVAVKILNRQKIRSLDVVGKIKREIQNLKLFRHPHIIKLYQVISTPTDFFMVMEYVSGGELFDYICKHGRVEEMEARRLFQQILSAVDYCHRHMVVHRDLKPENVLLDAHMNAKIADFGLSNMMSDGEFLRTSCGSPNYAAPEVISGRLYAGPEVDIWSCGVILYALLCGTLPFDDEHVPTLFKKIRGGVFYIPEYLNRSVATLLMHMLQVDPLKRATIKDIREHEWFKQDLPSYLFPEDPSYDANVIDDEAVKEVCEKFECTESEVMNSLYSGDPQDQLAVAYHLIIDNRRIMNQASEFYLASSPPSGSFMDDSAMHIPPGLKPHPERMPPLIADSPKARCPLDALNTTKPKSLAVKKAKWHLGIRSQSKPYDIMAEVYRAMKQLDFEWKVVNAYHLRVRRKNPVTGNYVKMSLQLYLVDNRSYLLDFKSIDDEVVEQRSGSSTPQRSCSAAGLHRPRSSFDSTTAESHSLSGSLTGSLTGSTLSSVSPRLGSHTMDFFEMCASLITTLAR
Sequence of AMPK alpha2/beta1/gamma1 (Homo sapiens) (P54619 whole entry partner): as the sequence (P54619 whole entry) above
Sequence of AMPK alpha2/beta1/gamma1 (Homo sapiens) (P54646 whole entry): as the sequence (P54646 whole entry, looked up) above
Sequence of AMPK alpha2/beta1/gamma1 (Homo sapiens) (Q9Y478 2-270 partner limits assumed): as the sequence (Q9Y478 2-270 partner limits assumed) above
Sequence of AMPK alpha1/beta1/gamma2 (Homo sapiens) (Q13131 whole entry partner): as the sequence (Q13131 whole entry partner) above
Sequence of AMPK alpha1/beta1/gamma2 (Homo sapiens) (Q9UGJ0 whole entry): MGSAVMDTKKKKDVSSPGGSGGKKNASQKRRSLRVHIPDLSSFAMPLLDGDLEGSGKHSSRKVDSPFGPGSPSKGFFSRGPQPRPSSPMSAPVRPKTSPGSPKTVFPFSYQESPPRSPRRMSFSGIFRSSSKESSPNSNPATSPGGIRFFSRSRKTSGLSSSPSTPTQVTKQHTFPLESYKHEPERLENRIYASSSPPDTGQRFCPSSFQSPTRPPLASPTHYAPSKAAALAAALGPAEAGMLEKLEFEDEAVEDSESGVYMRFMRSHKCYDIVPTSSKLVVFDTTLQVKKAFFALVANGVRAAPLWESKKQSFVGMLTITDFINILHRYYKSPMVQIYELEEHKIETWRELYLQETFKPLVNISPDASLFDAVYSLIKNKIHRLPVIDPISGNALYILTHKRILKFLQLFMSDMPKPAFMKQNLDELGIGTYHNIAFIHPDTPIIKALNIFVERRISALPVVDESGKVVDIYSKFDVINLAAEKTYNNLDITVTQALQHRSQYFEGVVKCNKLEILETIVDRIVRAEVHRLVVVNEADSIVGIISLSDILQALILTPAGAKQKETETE
Sequence of AMPK alpha1/beta1/gamma2 (Homo sapiens) (Q9Y478 2-270 partner limits assumed): as the sequence (Q9Y478 2-270 partner limits assumed) above

Broadly, the EC30 is the point of the concentration-response curve where the effect stands at 30%. In the case of `CC1(C)CC(c2ccccc2NS(=O)(=O)c2cccc(F)c2)Nc2ccc(C(F)(F)F)cc21` (stereo not given), in assay [1], the EC30 worked out at 1140 nM. In general, EC50 refers to the concentration needed to bring the measured effect to its halfway point. In assay [2], `Cc1cc(-c2c(O)c3cc(-c4ccc(N(C)C)cc4)c(Cl)cc3[nH]c2=O)on1` had an EC50 of 39.8 nM.

Take `CC(C)(C(=O)O)[C@H]1CC[C@H](Oc2nc3nc(-c4ccc(C5(CO)CC5)cc4)c(Cl)cc3[nH]2)CC1`: the %max was determined as 257% in [3] and 237% in assay [5]. The EC150 in [4] amounted to 5.6 nM; in assay [6] it was 5 nM. Turning to `Cc1ccc(Oc2nc3nc(-c4ccc(-c5ccccc5O)cc4)c(Cl)cc3[nH]2)cc1C(=O)O`, the %max is 355% in assay [3] and 292% in assay [5]. Further, the EC150 in assay [4] amounted to 0.42 nM; in [6], 4.3 nM. In the case of `N#Cc1ccc(-c2ccc(-c3nc4nc(O[C@@H]5CO[C@H]6[C@@H]5OC[C@H]6O)[nH]c4cc3Cl)cc2)c(F)c1`, the %max in assay [7] was 304%. For the compound `CC(C)(O)c1ccc(-c2cc3nc(O[C@H]4CO[C@H](CO)[C@@H](O)C4)[nH]c3cc2Cl)cc1`, the %max in assay [8] was found to be 379%. The EC50 in assay [9] came to 4 nM. Turning to `Cc1ccc(Oc2nc3cc(-c4ccc5c(ccn5C)c4)c(Cl)cc3[nH]2)cc1C(=O)O`, the %max in [10] was 241%. `CC1(C)Cc2cc(C(=O)O)ccc2NC1c1cccc(N2C(=O)OCC2(C)C)c1` (stereo not given): the EC30 in assay [1] was 1150 nM. As for `Cc1ccc(-c2c(O)c3c(-c4ccc5ccccc5c4O)c(Cl)sc3[nH]c2=O)cc1`, in assay [11], the Activity was over 90%. For `O=C(O)c1ccccc1O`, in the assay listed under Rattus norvegicus [12], the A0.5 stood at 1 mM. Turning to `COc1ccc(NC(=O)Nc2ccc(Cn3cnc(O)c3C(N)=O)cc2)cc1`, the Activity in the assay listed under Rattus norvegicus [13] came out at 229%. `Nc1nc(-c2ccc(-n3c(Cl)cc4[nH]c(=O)n(-c5cccc(C(=O)O)c5)c(=O)c43)cc2)cs1` gave an EC50 in assay [2] of 631 nM. By Emax is commonly meant the size of the effect at its maximum, as opposed to the concentration needed. For the compound `O[C@@H]1CO[C@H]2[C@@H]1OC[C@H]2Oc1cc2nc(-c3c(F)cc(N4CCOCC4)cc3F)c(F)cc2[nH]1`, in [14], the Emax is 729%. Further, the EC150 in assay [15] came out at 8.8 nM. On to `Cc1ccc(Oc2nc3nc(-c4ccc(N5CCCC5)cc4)c(Cl)cc3[nH]2)cc1C(=O)O`, for which the %max in [8] turned out to be 681%. Besides, the EC50 in [9] is 1 nM.

Consider `Cc1ccc(Oc2nc3cc(-c4ccc(N5CCOCC5)cc4)c(Cl)cc3[nH]2)cc1P(=O)(O)O`, for which the EC50 in assay [16] was 1.2 nM. The %max in assay [10] amounted to 224%.
